“Also recorded” adds a separate entry of the source. Where a SMILES comes first, the peptide text is derived from it. Bridges are numbered along the chain shown (N, C = ends).
Tests used:
[1] = cited from earlier work
Excerpt: Transient receptor potential vanilloid 1 (TRPV1) ion channel is a polymodal nociceptor broadly expressed in sensory neurons involved in pain sensation, making this channel a target for analgesia. Since TRPV1 deletion in rodents led to significant tolerance to noxious heat hyperalgesia[3],[4], antagonists of TRPV1 became the first choice to develop analgesic agents targeting TRPV1 in the past decades. Pharmacological inhibition TRPV1 indeed effectively alleviates dental, rectal, and thermal pain[5],[6]. However, TRPV1 also plays critical roles in thermoregulation, thus its antagonists suf ... || Positive allosteric modulator (PAM) is defined as a ligand without direct activation of its target, but potentiates the activity of agonists of targets. PAMs of TRPV1 have shown significant analgesic effect by inducing calcium overloading in previous reports[11],[12]. For instance, MRS1477 is developed as a small molecule PAM of TRPV1[13]. […] However, as both De1 and De3 bind to the intracell ... || TRPV1 plays a critical role in the pathogenesis of chronic pain[30]–[33], and has been a long-pursued target for pain management. To circumvent the side effects of the first-generation channel inhibitors occurred in clinical trials, alternative strategies such as the PAMs of TRRV1 have been developed.

TRPV3 = assay: Selectivity: 2-APB-evoked TRPV3 current; assay type: cell-based, murine; settings: 30 μM 2-APB; normalized to 1 mM 2-APB; mean ± S.E.M., n = 4
Protocol: (§1) HEK293T cells are cultured using DMEM medium contained 10% FBS in a cell incubator with 5% CO2 at 37 °C. Plasmids of murine TRPV1, TRPV2, TRPV3 and human TRPA1 are labeled with YFP or GFP as indicators for subsequent electrophysiological recordings. cDNA constructs of ion channels were transiently transfected with Lipofectamine 2000 (Invitrogen, Carlsbad, CA). And one or 2 days after transient transfection, electrophysiological recordings were performed.
(§2) Patch-clamp recordings were carried out with a HEKA EPC10 amplifier controlled by PatchMaster software (HEKA). Patch pipettes were prepared from borosilicate glass and fire-polished to resistance of 3–8 MΩ by P-97 puller. Both bath solution and pipette solution contained 130 mM NaCl, 10 mM glucose, 0.2 mM EDTA, and 3 mM HEPES and were adjusted to pH 7.2–7.4 with NaOH for whole-cell recordings. For solution with pH lower than 6.5, HEPES was replaced by MES. Whole-cell recordings were performed at ±80 mV. Current was sampled at 10 kHz and filtered at 2.9 kHz. All recordings were performed at room temperature (25 °C). A gravity-driven system (RSC-200, Bio-Logic) with freely rotated perfusion tubes was used for the perfusion of peptide or ligands. Bath and ligand solution were delivered through separate tubes to minimize the mixing of solutions. Patch pipette holding cells was placed in front of the perfusion tube outlet for perfusion.

TRPV2 = assay: Selectivity: 2-APB-evoked TRPV2 current; assay type: cell-based, murine; settings: 500 μM 2-APB; normalized to 4 mM 2-APB; mean ± S.E.M., n = 4
Protocol: as §1, §2

TRPV1 [2] = settings: cited from earlier work
Excerpt: Positive allosteric modulator (PAM) is defined as a ligand without direct activation of its target, but potentiates the activity of agonists of targets. PAMs of TRPV1 have shown significant analgesic effect by inducing calcium overloading in previous reports[11],[12]. For instance, MRS1477 is developed as a small molecule PAM of TRPV1[13]. […] For instance, noxious heat, proton, and divalent cations induce conformational changes in the outer pore to activate TRPV1[27]–[29].

TRPA1 = assay: Selectivity: AITC-evoked TRPA1 current; assay type: cell-based, human; settings: 30 μM AITC; normalized to 1 mM AITC; mean ± S.E.M., n = 4
Protocol: as §1, §2

TRPV1 [3] = biological target: T1, TRPV1 (Mus musculus, UniProt Q704Y3); assay: Whole-cell patch clamp: potentiation of capsaicin-evoked TRPV1 current; assay type: cell-based, murine
Protocol: as §1
as §2, with “Patch pipette holding cells was placed in front of the perfusion tube outlet for perfusion.” left out
(§3) Data from whole-cell recordings were analyzed in Igor Pro version 5.05 (WaveMatrix). […]

[4] = local delivery; words
Protocol: 20 μl of CFA was injected first to induce a chronic pain model. […] All data were shown as mean ± S.E.M. Source data are available as a Source Data file.
Complete Freund’s adjuvant (CFA) was injected at a volume of 20 μl to induce chronic inflammatory pain.

[5] = assay type: in vivo, mice; settings: i.p. 10 mg kg-1 peptide with capsaicin 1 mg kg-1; n = 6; words
Excerpt: (§4) Figure R3. […] (A) Statistical […]
(§5) results of hind paw thickness in mice.
(§6) N.S., not significant, two-way ANOVA. n = 9 mice in each group. (B) H&E staining showing the results of cell […]
(§7) N.S., not significant, n = 3 mice in each group. Scale bar, 50 μm. All data were shown as mean ± s.e.m. […]
(§8) different experiment should be performed.
(§9) Response: We thank the reviewer for the insightful comments. We also agree with the reviewer that the local injections of s-RhTx in this study are not likely to change body temperature. To test […]
(§10) 1) in mice and measured body temperature. […]
(§11) n = 6 mice in each group. No significance in two-way ANOVA. All data were shown as mean ± s.e.m. […]

mouse hind paw skin = assay type: in vivo, mice; settings: 1 week; folded s-RhTx with capsaicin; n = 3; words
Excerpt: as §4, §5, §6, §7, §8, §9, §10, §11

mouse hind paw = assay type: in vivo, mice; settings: 2 μg folded s-RhTx with capsaicin 200 ng; n = 9; words
Excerpt: as §4, §5, §6, §7, §8, §9, §10, §11

TRPV1 E652D [6] = biological target: T2, TRPV1 E652D (Mus musculus, UniProt Q704Y3, E652D); assay: Calcium imaging, TRPV1 mutant E652D; assay type: cell-based, murine; settings: 30 μM s-RhTx with 10 nM capsaicin; n = 45
Protocol: (§12) Site mutations of mTRPV1 were generated by Fast Mutagenesis Kit (Takara Bio). Primers used to generate point mutations are summarized in Supplementary Table 1. All mutations were confirmed by sequencing.
(§13) Calcium imaging assay was performed as previously described[12],[20]. In brief, HEK293T cells expressing TRPV1 were incubated with 2 μM Fluo-4 AM (Thermo Fisher) in 2 mM calcium Ringer’s solution (140 mM NaCl, 5 mM KCl, 2 mM MgCl2, 2 mM CaCl2, 10 mM glucose, and 10 mM HEPES, pH 7.4). Fluorescence images of HEK293T cells were acquired with Nikon Eclipse Ti2 microscope with optiMOS charge-coupled device camera controlled by the Ocular Software (Molecular Devices). Fluo-4 AM was excited at 500/20-nm excitation, and fluorescence emission was detected at 535/30-nm. Fluorescence images were analyzed with Fiji software and Office Excel.

TRPV1 E652D [7] = biological target: T2, TRPV1 E652D; assay: Mutant cycle analysis: concentration response, Kd and L on TRPV1 E652D; assay type: cell-based, murine; settings: mean ± S.E.M.
Protocol: In this analysis, the ligand binding (represented by Kd) and subsequent conformational changes leading to channel opening (represented by L) were separately quantified. Kd and L were calculated by the formulae: EC50 = Kd/(1 + L) and Po max = L/(1 + L), when Po max and EC50 are experimentally measured[20],[21]. Previously we have successfully performed this analysis to establish the interactions between peptide toxin BmP01 and TRPV1[16].
as §12
Patch-clamp recordings were carried out with a HEKA EPC10 amplifier controlled by PatchMaster software (HEKA). Patch pipettes were prepared from borosilicate glass and fire-polished to resistance of 3–8 MΩ by P-97 puller. Both bath solution and pipette solution contained 130 mM NaCl, 10 mM glucose, 0.2 mM EDTA, and 3 mM HEPES and were adjusted to pH 7.2–7.4 with NaOH for whole-cell recordings. […]
as §3
The strength of coupling was determined by the coupling energy (kT multiplied by LnΩ, where k is the Boltzmann constant and T is temperature in Kelvin). LnΩ was calculated by the following equation: LnΩ=LnKd_1⋅Kd_4/Kd_2⋅Kd_3

[8] = tested on: DRG neurons, Trpv1-Ai14 mice; assay: Trpv1+ and Nissl+ neurons in DRGs; assay type: in vivo; settings: for Trpv1+ neurons (% of all neurons): sheet S5e
Protocol: (§14) Adult C57 BL/6 mice (male, 8–10 weeks) and Trpv1^-/- mice (Jax Strain #:003770) were used for behavioral studies. To specifically label Trpv1-positive nerve fibers in skin tissues, Trpv1-Cre mice[36] (Jax Strain #:017769) were crossed with floxed reporter lines (Ai32, Jax Strain #:012569 or Ai14, Jax Strain #:007914) to get the transgenic reporter (Trpv1-Ai32 or Trpv1-Ai14) mice. Mice were group-housed at 22–24 °C and relative humidity of 30–70% under the 12 h light-dark cycle with access to standard food and water ad libitum. All the animal procedures were approved by the Institutional Animal Care & Use Committee (IACUC) of Zhejiang University.
(§15) After appropriate survival times, the mice were deeply anesthetized with isoflurane and perfused through the ascending aorta with PBS, followed by 4% PFA. After the perfusion, the hind paw glabrous skins and L4-L6 DRGs were removed and postfixed in the same fixative overnight. Skin sections (30 μm) and DRG sections (10 μm) were cut in a cryostat. Sections were blocked with 2% BSA for 2 h at room temperature and then incubated with Deep-red 640/660-conjugated Nissl (1:1000) at room temperature for 2 h. Sections were then incubated with DAPI (1:10,000, Vector Laboratories, catalog H-1200) for 5 min, followed by three times washing with PBS for 5 min each. The stained and mounted sections were examined with a Nikon fluorescence microscope, and images were captured with a charge-coupled device Spot camera. For quantification analysis, at least three sections from each mouse were selected, and at least three mice were analyzed in each group. To evaluate Trpv1-positive nerve fiber degeneration, transgenic reporter (Trpv1-Ai32 or Trpv1-Ai14) mice were used for the quantification of intra-epidermal nerve fiber (IENF) density. IENF density was calculated by counting the number of IENF crossing the epidermis-dermis boundary within unit length.

TRPV1 [9] = biological target: T1, TRPV1; assay: Calcium imaging, HEK293T cells expressing TRPV1; assay type: cell-based, murine; settings: 30 μM s-RhTx with 10 nM capsaicin; n = 12
Protocol: as §1, §13

[10] = tested on: Trpv1+ nerve fibers, Trpv1-Ai32 / Trpv1-Ai14 mice; assay: Trpv1+ intra-epidermal nerve fiber (IENF) quantification; assay type: in vivo; settings: folded s-RhTx without capsaicin; words
Protocol: as §14, §15

TRPV1 [11] = biological target: T1, TRPV1; assay: Whole-cell patch clamp: potentiation of proton-evoked TRPV1 current; assay type: cell-based, murine; settings: pH 6.5; Hill fit; n = 4 cells; read-out: EC50, enhancement of proton-induced current
Protocol: as §1
as §2, with “Patch pipette holding cells was placed in front of the perfusion tube outlet for perfusion.” left out
as §3

T1 sequence (Q704Y3 whole entry): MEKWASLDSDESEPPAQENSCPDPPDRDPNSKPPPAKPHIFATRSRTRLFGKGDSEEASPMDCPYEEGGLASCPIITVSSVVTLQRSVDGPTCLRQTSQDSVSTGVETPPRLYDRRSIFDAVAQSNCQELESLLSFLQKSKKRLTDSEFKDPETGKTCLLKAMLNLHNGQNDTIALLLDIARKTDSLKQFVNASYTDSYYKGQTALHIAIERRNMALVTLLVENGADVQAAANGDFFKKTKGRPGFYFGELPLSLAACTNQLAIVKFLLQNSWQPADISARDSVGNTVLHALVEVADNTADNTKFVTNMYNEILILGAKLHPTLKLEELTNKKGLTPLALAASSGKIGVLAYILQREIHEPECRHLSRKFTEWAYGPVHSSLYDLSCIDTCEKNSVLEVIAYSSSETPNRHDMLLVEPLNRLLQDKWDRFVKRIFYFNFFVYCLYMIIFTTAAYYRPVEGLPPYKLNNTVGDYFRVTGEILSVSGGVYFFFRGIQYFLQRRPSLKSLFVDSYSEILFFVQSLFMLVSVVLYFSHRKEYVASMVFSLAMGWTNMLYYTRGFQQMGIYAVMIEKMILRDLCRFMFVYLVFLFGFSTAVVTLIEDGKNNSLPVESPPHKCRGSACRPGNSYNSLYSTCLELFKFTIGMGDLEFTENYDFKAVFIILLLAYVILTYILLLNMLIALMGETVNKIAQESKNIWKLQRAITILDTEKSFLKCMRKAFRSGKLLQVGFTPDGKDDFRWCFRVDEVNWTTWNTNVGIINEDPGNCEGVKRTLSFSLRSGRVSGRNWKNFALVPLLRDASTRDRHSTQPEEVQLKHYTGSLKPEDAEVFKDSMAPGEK
T2 sequence (Q704Y3 whole entry E652D): as the sequence (Q704Y3 whole entry) above, with E652D counted along it

C=C(C)[C@]12C[C@@H](C)[C@@]34O[C@](Cc5ccccc5)(O[C@@H]1[C@@H]3C=C(COC(=O)Cc1ccc(O)c(OC)c1)C[C@]1(O)C(=O)C(C)=C[C@@H]41)O2 [resiniferatoxin]
cell death in TRPV1-expressing neurons [1]: induces cells death in TRPV1-expressing neurons

NCCOB(c1ccccc1)c1ccccc1 [2-APB]
normalized TRPV3 current, 2-APB alone (TRPV3): 7.08 ± 3.57% | normalized TRPV2 current, 2-APB alone (TRPV2): 7.06 ± 2.25%

CCOC(=O)C1=C(c2ccccc2)NC(C)=C(C(=O)SCCOC)C1CC (centres unmarked) [MRS1477]
duration of analgesic effects [1]: about two weeks | TRPV1 activation by capsaicin (TRPV1 [2]): enhances TRPV1 activation by capsaicin

C=CCN=C=S [AITC]
normalized TRPA1 current, AITC alone (TRPA1): 41.06 ± 12.85%

CC[C@H](C)[C@H](NC(=O)[C@@H]1CSSC[C@@H]2NC(=O)[C@H]([C@@H](C)O)NC(=O)[C@H](C(C)C)NC(=O)CNC(=O)[C@H](CC(N)=O)NC(=O)[C@@H](NC(=O)[C@@H]3CCCN3)CSSC[C@H](NC(=O)[C@H](CCCNC(=N)N)NC(=O)[C@H](Cc3ccc(O)cc3)NC(=O)CNC(=O)[C@H](CO)NC(=O)[C@@H]3CCCN3C2=O)C(=O)N[C@@H](CO)C(=O)N[C@@H]([C@@H](C)CC)C(=O)N[C@@H](C(C)C)C(=O)N[C@@H](CC(=O)O)C(=O)N[C@@H](CCCCN)C(=O)N[C@@H](CCC(N)=O)C(=O)N1)C(=O)N[C@@H](CCCCN)C(=O)N[C@@H](CCCCN)C(=O)N[C@@H](CCC(=O)O)C(=O)O [s-RhTx] (H-PCNGVTCPSGYRCSIVDKQCIKKE-OH; disulfide 2-13, 7-20)
EC50 (TRPV1 [3]): 890 ± 450 nM | body temperature change [4]: did not cause any changes in the body temperature | body temperature change, systemic [5]: didn’t change body temperature | recruitment of immune cells (mouse hind paw skin): did not induce the recruitment | local inflammation of hind paw (mouse hind paw): no obvious local | increase of intracellular calcium fluorescence, E652D (TRPV1 E652D [6]): 47.5 ± 0.05% | EC50 (TRPV1 E652D [7]): 7160 ± 1420 nM | Trpv1+ neuron proportion and total neuron density in DRGs ([8]; co-injection with capsaicin, 1 and 4 weeks, words, listed as folded s-RhTx): did not change at 1 week; also recorded: not significantly changed | Trpv1+ neurons (% of all neurons) ([8]; 1 week, Mouse # 1): 33.4% | Trpv1+ neurons (% of all neurons) ([8]; 1 week, Mouse # 2): 33.4% | Trpv1+ neurons (% of all neurons) ([8]; 1 week, Mouse # 3): 35.2% | Trpv1+ neurons (% of all neurons) ([8]; 4 weeks, Mouse # 1): 37.1% | Trpv1+ neurons (% of all neurons) ([8]; 4 weeks, Mouse # 2): 32.1% | Trpv1+ neurons (% of all neurons) ([8]; 4 weeks, Mouse # 3): 33.0% | enhancement of intracellular calcium, WT TRPV1 (TRPV1 [9]): 56.09 ± 8.62% | IENF degeneration, peptide alone [10]: did not induce | EC50 (TRPV1 [11]): 1580 ± 500 nM
